The values below come from patent US20020045780A1, “Biologically active spermidine analogues, pharmaceutical compositions and methods of treatment” (priority 1997, published 2002).

Entries after “also recorded” stand apart in the source; their conditions may differ. Structures can show the parent of a compound that is named as a salt. Where two headings read alike, the source gives them in different places. A value given as a limit tells only on which side of the number the result lay.

Data set [1] relates to L1210 cells. Nature of the data set: L1210 growth inhibition, IC50 determination. The class given is cell-based, murine. The method, then:
Murine L1210 leukemia cells (ATCC CCL 219) were maintained in logarithmic growth in RPMI-1640 medium containing 10% fetal calf serum or a semi-synthetic equivalent, NuSerum, 2% HEPES-MOPS buffer and 1 mM aminoguanidine.

Data set [2] has as its system polyamine transport apparatus. The data set can be described thus: Competitive uptake determination: inhibition of [3H]spermidine transport into L1210 cells. The class given is cell-based, murine. Particulars: analogue inhibition of spermidine transport. The method, then:
The ability of the norspermidines, spermidines, homospermidines, 4,5- and 5,5-triamines to compete with radiolabeled SPD for uptake was evaluated (Table 1). The general trend is that the terminally alkylated triamines have higher Ki values than the unalkylated triamines and are thus less easily taken up by the cell. […] This is not completely true with the norspermidines and the 5,5 triamines. The relationship holds with methyl and ethyl but not for the propyl of the latter two systems. Finally, the number of methylenes separating the amines plays a role in determining polyamine uptake properties. In general the effectiveness with which the analogues compete for uptake is spermidines≈homospermidines>4,5 triamines>5,5 triamines>norspermidine.
The polyamine derivatives were studied for their ability to compete with [^3H]-SPD for uptake into L1210 cells [Bergeron et al, J. Med. Chem., Vol. 37, supra]. Lineweaver-Burk plots indicated a simple competitive inhibition with respect to SPD.

In data set [3] the test system is L1210 cells. Nature of the data set: Polyamine pool analysis in L1210 cells. Format: cell-based, murine. Particulars: for activity at 100 µM / activity at 500 µM / activity at 25 µM / activity at 125 µM: Mus musculus, L1210, 48 h, % of untreated control; for Analogue: intracellular amount, 48 hours. The method, then: The following guidelines were adopted for studying the impact of the analogues on polyamine pools (Table 2). The measurements were made after a 48-hour exposure to the analogue, and two different concentrations of analogue were evaluated in each case.
(§1) The cells were washed twice with cold RPMI-1640, and the pellet was treated with 0.6 N HClO4 (1 ml/10^7 cells). Polyamine contents of the perchloric acid extracts were quantitated by HPLC of the DANSYL derivatives [Bergeron et al, J. Med. Chem., Vol. 37, supra].

Data set [4] concerns ornithine decarboxylase (ODC). The data set can be described thus: ODC activity in treated L1210 cells. Format: cell-based, murine. The conditions noted are these: L1210, 1 μM at 4 hours. The method, then:
(§2) On the basis of these studies, it was elected to evaluate the impact of the triamines on ODC and AdoMetDC at 4 and 6 hours, respectively.
(§3) ODC and AdoMetDC activities were determined as ^14CO2 released from [^14C]-carboxyl-labeled L-ornithine [Seely et al, “Ornithine Decarboxylase (Mouse Kidney),” Methods Enzymol., Vol. 94, pages 158-161 (1983)] or S-adenosyl-L-methionine [Pegg et al, “S-Adenosylmethionine Decarboxylase (Rat Liver),” Methods Enzymol., Vol. 94, pages 234-239 (1983)], respectively. Included in each assay were untreated L1210 cells as controls, as well as cells treated with DEHSPM, a drug having a known reproducible effect on each enzyme, as positive controls.

In data set [5] the test system is S-adenosylmethionine decarboxylase (AdoMetDC). Nature of the data set: AdoMetDC activity in treated L1210 cells. Particulars: L1210, 1 μM at 6 hours. The class given is cell-based, murine. The method, then:
as §2, §3

The subject of data set [6] is spermidine/spermine acetyltransferase (SSAT). The data set can be described thus: SSAT activity in treated L1210 cells. Particulars: L1210, 10 μM at 48 hours (triamine analogues). The class given is cell-based, murine. The text has this: Spermidine/spermine N^1-acetyltransferase activity was based on quantitation of [^14C]-N^1-acetylspermidine formed by acetylation of SPD with [^14C] acetyl coenzyme A according to the method of Libby et al [Biochem. Pharmacol., Vol. 38, supra]. Cells treated with DENSPM were positive controls.

Data set [7] has as its system L1210 cells. Nature of the data set: Metabolic transformation of polyamine analogues by L1210 cells. Format: in vitro ADME, murine. The conditions noted are these: 48 hours. The method, then:
as §1

The mark [8] stands for this setting: Mus musculus, L1210, 48 h, L1210, 48 hour exposure, read-out: IC50 48 hour.
[9] abbreviates: Mus musculus, L1210, 96 h, L1210, 96 hour exposure, read-out: IC50 96 hour.

On to `CCCNCCCNCCCN` [MPNSPD, N^1-Propylnorspermidine Trihydrochloride], for which the values for the IC50 with L1210 cells [1] (setting [8]) and in the data set on L1210 cells [1] (setting [9]) were more than 100 µM and approximately 100 µM, respectively. The compound also came in with a Ki in data set [2] of 33 µM. Moreover, the activity at 100 µM in the data set on L1210 cells [3] (100 μM, read-out: Put) is 0%; with L1210 cells [3] (100 μM, read-out: Spd), 29%; with L1210 cells [3] (100 μM, read-out: Spm) it was 56%. For the same compound, the activity at 500 µM in the data set on L1210 cells [3] (500 μM, read-out: Put) is 0%; in the data set on L1210 cells [3] (500 μM, read-out: Spm), less than 50%. The Analogue with L1210 cells [3] (100 μM) turned out to be 3.07 nmol/10^6 cells; with L1210 cells [3] (500 μM), 4.78 nmol/10^6 cells. For the same compound, the “ODC activity, percent of untreated control” value (from here on “ODC activity, percent”) in data set [4] is reported as 33% of untreated control. Also, the “AdoMetDC activity, percent of untreated control” value (“AdoMetDC activity, percent” below) in data set [5] is 38% of untreated control. Further, the “SSAT activity, percent of untreated control” value (“SSAT activity, percent” below) in data set [6] is on record as 470% of untreated control. In the data set with L1210 cells [7] (100 μM analogue), the “Parent drug as % of total drug in the cell” value (“Parent drug as %” below) amounted to 94.3%. In addition, the “Parent drug in L1210 cells” value in the data set with L1210 cells [7] (100 μM analogue) was 3019 pmols/10^6. The “Elaboration to tetraamine (result in words)” value with L1210 cells [7] (100 μM analogue, listed as MP-[3,3], Trihydrochloride) is “no evidence of a tetraamine elaboration metabolite; also recorded: no elaboration of N-Monoalkyl [3,3]”.

As to `CCCNCCCCNCCCCNCCC` [DPHSPD, N^1,N^9-Dipropylhomospermidine Trihydrochloride], the IC50 in the data set with L1210 cells [1] (setting [8]) is more than 100 µM; with L1210 cells [1] (setting [9]) it was 6 µM. Affinity in data set [2] was put at a Ki of 67 µM. In addition, the activity at 100 µM in the data set on L1210 cells [3] (100 μM, read-out: Put) came to 0%; in the data set with L1210 cells [3] (100 μM, read-out: Spd), 19%; in the data set on L1210 cells [3] (100 μM, read-out: Spm) it was 144%. For the same compound, the activity at 500 µM with L1210 cells [3] (500 μM, read-out: Put) was 0%; in the data set on L1210 cells [3] (500 μM, read-out: Spd), 7%; in the data set with L1210 cells [3] (500 μM, read-out: Spm), 111%. Further, the Analogue in the data set on L1210 cells [3] (100 μM) is listed as 3.12 nmol/10^6 cells; in the data set with L1210 cells [3] (500 μM), 3.68 nmol/10^6 cells. For the same compound, the “ODC activity, percent” value in data set [4] is listed as 86% of untreated control. In data set [5], the “AdoMetDC activity, percent” value is on record as 123% of untreated control. In addition, the “SSAT activity, percent” value in data set [6] is 420% of untreated control. Further, the “Elaboration to tetraamine (result in words)” value in the data set on L1210 cells [7] (500 μM analogue) was “elaboration of N-Monoalkyl [4,4]”. Further, in the data set with L1210 cells [7] (500 μM analogue), the “Parent drug as %” value came out at 87.7%. Further, the “Parent drug in L1210 cells” value with L1210 cells [7] (500 μM analogue) is reported as 3149 pmols/10^6.

For `CCNCCCCNCCCCNCC` [DEHSPD, N^1,N^9-Diethylhomospermidine Trihydrochloride], the concentration for half-maximal inhibition (IC50) is 18 to 25 µM in the data set with L1210 cells [1] (L1210, 48 hour exposure, Trihydrochloride, read-out: IC50 48 hour); 25 µM with L1210 cells [1] (setting [8]); 0.3 to 0.4 µM in the data set on L1210 cells [1] (setting [9]). Further, in data set [2], the affinity, expressed as Ki, was 19 µM. For the same compound, the activity at 25 µM in the data set on L1210 cells [3] (25 μM, read-out: Put) was 0%; in the data set on L1210 cells [3] (25 μM, read-out: Spd) it was 6%; with L1210 cells [3] (25 μM, read-out: Spm), 114%. Also, the activity at 125 µM stood at 0% with L1210 cells [3] (125 μM, read-out: Put); 3% with L1210 cells [3] (125 μM, read-out: Spd); 97% with L1210 cells [3] (125 μM, read-out: Spm). Moreover, the Analogue is on record as 4.61 nmol/10^6 cells with L1210 cells [3] (25 μM) and 4.69 nmol/10^6 cells with L1210 cells [3] (125 μM). Moreover, in data set [4], the “ODC activity, percent” value is reported as 47% of untreated control. In addition, in data set [5], the “AdoMetDC activity, percent” value is given as 90% of untreated control. The “SSAT activity, percent” value in data set [6] was 640% of untreated control. For the same compound, the “Parent drug as %” value in the data set with L1210 cells [7] (100 μM analogue) is 100%. Further, the “Parent drug in L1210 cells” value with L1210 cells [7] (100 μM analogue) was 4215 pmols/10^6. In the data set on L1210 cells [7] (100 μM analogue, listed as DE-[4,4], Trihydrochloride), the “N-Monodealkylation (result in words)” value is on record as “do not show significant N-deethylation; also recorded: no N-deethylation”.
